Experimental data: patent US20220390459A1, “RAPID, HIGH-INTENSITY CHEMILUMINESCENT DIOXETANES” (Beckman Coulter, Inc., priority 2019, published 2022)

System: alkaline phosphatase
Assay: Chemiluminescence intensity over time after combining the phosphate dioxetane with alkaline phosphatase solution
Assay type: biochemical
Conditions: for profile of emission intensity over time (in words): alkaline phosphatase in 221 buffer, compound and TBE concentration differ per example; for intensity and speed of luminescence compared with other examples (in words): AP8, TBE enhancer in 221 buffer, concentrations differ per example
[1] = compound 1.25 mg/mL, TBE enhancer 5 mg/mL in 221 buffer, 100 μL + 10 μL AP8, 37° C.
[2] = compound 0.125 mg/mL, TBE enhancer 2.5 mg/mL in 221 buffer, 100 μL + 10 μL AP8, 37° C.
[3] = compound 0.25 mg/mL, TBE enhancer 5 mg/mL in 221 buffer, 100 μL + 10 μL AP8, 37° C.
[4] = compound 0.25 mg/mL, TBE enhancer 2.5 mg/mL in 221 buffer, 100 μL + 10 μL AP8, 37° C.
[5] = compound 0.2 mg/mL in 221 buffer without TBE enhancer, 100 μL + 10 μL AP9 [1.24E-20 mole/μL], 37° C.

SMILES | profile of emission intensity over time (in words) (37° C.) | intensity and speed of luminescence compared with other examples (in words) (37° C.) | time to reach maximum, steady-state intensity [3] | Σ value [3] | further results
COC1(c2cccc(OP(=O)([O-])[O-])c2)OOC12C1CC3CC(C1)CC2C3.[Na+].[Na+] (centres unmarked) [Example 12, 4-methoxy-4-(3-phosphatephenyl)spiro[1,2-dioxetane-3,2′-adamantane], reference compound] | slow and gradual increase in emission intensity |  |  |  | profile of emission intensity over time (in words) (37° C., listed as Lumigen® PPD): slow luminescence; time to reach maximum light intensity or steady-state plateau [1]: more than 15 minutes; Σ value [1]: 2.27E+05
COC1(c2ccc(Cl)c(OP(=O)([O-])[O-])c2)OOC12C1CC3CC2CC(Cl)(C3)C1.[Na+].[Na+] (centres unmarked) [Example 13, reference compound] | slow and gradual increase in emission intensity |  |  |  | profile of emission intensity over time (in words) (37° C., listed as Tropix CDP-Star®): slow luminescence; time to reach maximum light intensity or steady-state plateau [2]: more than 15 minutes; Σ value [2]: 1.91E+05
COC1(c2ccc(-c3cccs3)c(OP(=O)([O-])[O-])c2)OOC12C1CC3CC(C1)CC2C3.[Na+].[Na+] (centres unmarked) [Example 14] | rapid increase in intensity | higher intensity and faster response compared to the compound of Examples 12-13 | ≤ 1 min | 9.97E+05 | 
COC1(c2ccc(-c3ccsc3)c(OP(=O)([O-])[O-])c2)OOC12C1CC3CC(C1)CC2C3.[Na+].[Na+] (centres unmarked) [Example 15] | rapid increase in intensity | higher intensity and faster response compared to the compound of Examples 12-13 | ≤ 2 min | 7.38E+05 | 
C=Cc1ccc(C2(OC)OOC23C2CC4CC(C2)CC3C4)cc1OP(=O)([O-])[O-].[Na+].[Na+] (centres unmarked) [Example 16] | rapid increase in intensity | higher intensity and faster response compared to the compound of Examples 12-15 |  |  | time to reach maximum, steady-state intensity [4]: less than 3 minutes; Σ value [4]: 1.59E+06
COC1(c2ccc(-c3ccc(C#N)s3)c(OP(=O)([O-])[O-])c2)OOC12C1CC3CC(C1)CC2C3.[Na+].[Na+] (centres unmarked) [Example 17] | rapid increase in intensity |  |  |  | time to reach maximum, steady-state intensity [5]: ≤ 2 min; Σ value [5]: 2.77E+05
